Values joined by “and” are separate entries in the source; they are usually repeats but may differ in a detail not shown here. Equal values may be shown once. Read-outs that look alike come from different tables or passages of the source.
Legend:
SFTSV [1] = format: cell-based, Severe fever with thrombocytopenia syndrome virus
SFTSV [2] = conditions: read-out: IC50 against SFTSV; cited from earlier work
SFTSV [3] = format: cell-based, Severe fever with thrombocytopenia syndrome virus; remark: listed apart in the source
SFTSV [4] = assay: microbe, parasite or virus in culture; format: cell-based; conditions: for IC50: Severe fever with thrombocytopenia syndrome virus
in vitro = conditions: African green monkey
SFTSV [5] = assay: microbe, parasite or virus in culture; format: cell-based
SFTSV [6] = format: cell-based, Severe fever with thrombocytopenia syndrome virus; remark: listed apart in the source
SFTSV [7] = format: cell-based, Severe fever with thrombocytopenia syndrome virus; conditions: pH 5
SFTSV [8] = format: cell-based, Severe fever with thrombocytopenia syndrome virus; remark: listed apart in the source

SMILES	IC50 (SFTSV [2])	CC50 (in vitro)	IC99 (SFTSV [4])	Selectivity Index (CC50/IC50) (SFTSV [4])	IC50 (SFTSV [4])	other results
NC(=O)c1nc(F)c[nH]c1=O [favipiravir]	25 µM					fold read-out between drug-treated and DMSO-treated groups by ELISA (SFTSV [1]): > 10 fold and > 15 fold; intracellular viral RNA load vs DMSO, drug co-mixed with SFTSV (SFTSV [3]): no statistically significant difference; difference in SFTSV RNA load between drug-treated and DMSO-treated groups (SFTSV [4]): approximately 4 log10
Nc1ccn([C@@H]2O[C@H](CO)[C@@H](O)[C@H]2F)c(=O)n1 [2′-fluoro-2′-deoxycytidine]	3.7 µM					
Oc1cc(Cl)ccc1Oc1ccc(Cl)cc1Cl [Triclosan, triclosan]		17.7 ± 2.9 µM	8.5 ± 2.1 µM	5.5	3.2 ± 0.4 µM	
CNC(=O)c1cc(Oc2ccc(NC(=O)Nc3ccc(Cl)c(C(F)(F)F)c3)c(F)c2)ccn1 [Regorafenib, regorafenib]		31.3 ± 0.5 µM	11.3 ± 0.5 µM	7.0	4.5 ± 0.5 µM	
NC(=O)c1ncn([C@@H]2O[C@H](CO)[C@@H](O)[C@H]2O)n1 [ribavirin]	40.1 µM					
Oc1c(Br)cc(Br)c2cccnc12 [Broxyquinoline, broxyquinoline]		36.4 ± 5.5 µM	16.3 ± 4.3 µM	6.3	5.8 ± 1.3 µM	
CC1=NN(c2ccc(C)c(C)c2)C(=O)/C1=N\Nc1cccc(-c2cccc(C(=O)O)c2)c1O [Eltrombopag, eltrombopag]		18.4 ± 0.2 µM	10.3 ± 3.4 µM	4.5	4.1 ± 0.2 µM	
CCN(CC)Cc1cc(Nc2ccnc3cc(Cl)ccc23)ccc1O [amodiaquine]	19.1 µM					
O=C(O)/C=C/c1ccc(O)c(O)c1 [caffeic acid]	180 µM					
Oc1c(Cl)cc(Cl)c(Cl)c1Cc1c(O)c(Cl)cc(Cl)c1Cl [Hexachlorophene, hexachlorophene]		24.3 ± 3.2 µM	7.5 ± 1.2 µM	18.7	1.3 ± 0.3 µM	plaque reduction (SFTSV [5]): 100%; IC50 (SFTSV [5]; Severe fever with thrombocytopenia syndrome virus, Vero, read-out: IC50, plaque reduction assay): 2.6 ± 0.14 µM; inhibitory activity on virus attachment, cells pretreated with drug (SFTSV [6]): no significant; intracellular viral RNA load vs DMSO, drug co-mixed with SFTSV (SFTSV [3]): Significantly lower viral RNA load; syncytium formation in SFTSV-infected cells (SFTSV [7]): dramatically inhibited; virus infectivity after pre-incubation of SFTSV with drug (SFTSV [8]): not significantly; IC50 (SFTSV [4]; read-out: IC50 against SFTSV): 1.3 to 2.6 µM

— publication PMC6520937 (Viruses, 2019)
